Assay results published in PubChem BioAssay AID1963420 (Molecular Pharmacology Branch, DTP, NCI, 2024).

Tested on: 494315-158-R-J1-PDC complex spheroid growth, percent test/control
Test: Anticancer human tumor 494315-158-R-J1-PDC patient-derived soft tissue sarcoma cell line growth inhibition [Asc]
Conditions: for IC50: curve of first compound; for viability, T/C: stronger effect = lower value
In short: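 Complex spheroids combining tumor cells with HUVEC endothelial cells and human MSCs, at 37 degrees C, 5% CO2; agents tested alone or combined, half-log dilutions from at or near clinical Cmax, or 10 microM if Cmax unknown.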

[1] = second compound 0.1 µM, first compound 0.0316 µM
[2] = second compound 0.1 µM, first compound 0.1 µM
[3] = second compound 0.1 µM, first compound 0.316 µM
[4] = second compound 0.1 µM, first compound 1 µM
[5] = second compound 0.316 µM, first compound 0.0316 µM
[6] = second compound 0.316 µM, first compound 0.1 µM
[7] = second compound 0.316 µM, first compound 0.316 µM
[8] = second compound 0.316 µM, first compound 1 µM
[9] = second compound 1 µM, first compound 0.0316 µM
[10] = second compound 1 µM, first compound 0.1 µM
[11] = second compound 1 µM, first compound 0.316 µM
[12] = second compound 1 µM, first compound 1 µM
[13] = second compound 3.16 µM, first compound 0.0316 µM
[14] = second compound 3.16 µM, first compound 0.1 µM
[15] = second compound 3.16 µM, first compound 0.316 µM
[16] = second compound 3.16 µM, first compound 1 µM
[17] = second compound 10 µM, first compound 0.0316 µM
[18] = second compound 10 µM, first compound 0.1 µM
[19] = second compound 10 µM, first compound 0.316 µM
[20] = second compound 10 µM, first compound 1 µM
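Also: compound exposure lasted seven days after spheroids formed for three days.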

SMILES: CCN1C(C(=O)NC23CCC(C(=O)O)(CC2)CC3)C(c2cccc(Cl)c2F)C2(C(=O)Nc3cc(Cl)ccc32)C12CCCCC2 (stereo not given) + Cc1c(S(C)(=O)=O)c(-c2cc(F)cc(N3CCN(c4ccc(NS(=O)(=O)c5ccc(NC(CCN6CCC(C(=O)OCCCP(=O)(O)O)CC6)CSc6ccccc6)c(S(=O)(=O)C(F)(F)F)c5)cc4)CC3)c2)c(-c2ccc(Cl)cc2)n1C(C)C
- IC50 (second compound 0.1 µM): > 3000 nM
- IC50 (second compound 0.316 µM): > 3000 nM
- IC50 (second compound 1 µM): 1020 nM
- IC50 (second compound 3.16 µM): 71.7 nM
- IC50 (second compound 10 µM): > 3000 nM
- viability, T/C (second compound 0.1 µM, first compound 0.00949 µM): 80.3%
- viability, T/C (second compound 0.1 µM, first compound 0.03 µM): 86.6%
- viability, T/C (second compound 0.1 µM, first compound 0.0949 µM): 84.4%
- viability, T/C (second compound 0.1 µM, first compound 0.3 µM): 77.4%
- viability, T/C (second compound 0.1 µM, first compound 0.949 µM): 77.4%
- viability, T/C (second compound 0.1 µM, first compound 3 µM): 67%
- viability, T/C (second compound 0.316 µM, first compound 0.00949 µM): 79.1%
- viability, T/C (second compound 0.316 µM, first compound 0.03 µM): 74.9%
- viability, T/C (second compound 0.316 µM, first compound 0.0949 µM): 64.4%
- viability, T/C (second compound 0.316 µM, first compound 0.3 µM): 60.7%
- viability, T/C (second compound 0.316 µM, first compound 0.949 µM): 63.3%
- viability, T/C (second compound 0.316 µM, first compound 3 µM): 54.3%
- viability, T/C (second compound 1 µM, first compound 0.00949 µM): 66%
- viability, T/C (second compound 1 µM, first compound 0.03 µM): 66.3%
- viability, T/C (second compound 1 µM, first compound 0.0949 µM): 68.8%
- viability, T/C (second compound 1 µM, first compound 0.3 µM): 62.8%
- viability, T/C (second compound 1 µM, first compound 0.949 µM): 50.8%
- viability, T/C (second compound 1 µM, first compound 3 µM): 39.7%
- viability, T/C (second compound 3.16 µM, first compound 0.00949 µM): 53.3%
- viability, T/C (second compound 3.16 µM, first compound 0.03 µM): 45.1%
- viability, T/C (second compound 3.16 µM, first compound 0.0949 µM): 53.8%
- viability, T/C (second compound 3.16 µM, first compound 0.3 µM): 46.5%
- viability, T/C (second compound 3.16 µM, first compound 0.949 µM): 45.8%
- viability, T/C (second compound 3.16 µM, first compound 3 µM): 35.6%
- viability, T/C (second compound 10 µM, first compound 0.00949 µM): 83%
- viability, T/C (second compound 10 µM, first compound 0.03 µM): 73.3%
- viability, T/C (second compound 10 µM, first compound 0.0949 µM): 68.4%
- viability, T/C (second compound 10 µM, first compound 0.3 µM): 68.5%
- viability, T/C (second compound 10 µM, first compound 0.949 µM): 52.8%
- viability, T/C (second compound 10 µM, first compound 3 µM): 52.8%

SMILES: O=C(c1cc(Cc2n[nH]c(=O)c3ccccc23)ccc1F)N1CCN(C(=O)C2CC2)CC1 + Cc1c(S(C)(=O)=O)c(-c2cc(F)cc(N3CCN(c4ccc(NS(=O)(=O)c5ccc(NC(CCN6CCC(C(=O)OCCCP(=O)(O)O)CC6)CSc6ccccc6)c(S(=O)(=O)C(F)(F)F)c5)cc4)CC3)c2)c(-c2ccc(Cl)cc2)n1C(C)C
- IC50 (second compound 0.1 µM): 3040 nM
- IC50 (second compound 0.316 µM): 1620 nM
- IC50 (second compound 1 µM): 1640 nM
- IC50 (second compound 3.16 µM): 1080 nM
- IC50 (second compound 10 µM): 2260 nM
- viability, T/C [1]: 86%
- viability, T/C [2]: 76.2%
- viability, T/C [3]: 69.2%
- viability, T/C [4]: 63.5%
- viability, T/C (second compound 0.1 µM, first compound 3.16 µM): 49.5%
- viability, T/C (second compound 0.1 µM, first compound 10 µM): 36.3%
- viability, T/C [5]: 71.7%
- viability, T/C [6]: 66.4%
- viability, T/C [7]: 59.7%
- viability, T/C [8]: 57.6%
- viability, T/C (second compound 0.316 µM, first compound 3.16 µM): 42.5%
- viability, T/C (second compound 0.316 µM, first compound 10 µM): 33%
- viability, T/C [9]: 62.7%
- viability, T/C [10]: 70.9%
- viability, T/C [11]: 62%
- viability, T/C [12]: 57.8%
- viability, T/C (second compound 1 µM, first compound 3.16 µM): 40.1%
- viability, T/C (second compound 1 µM, first compound 10 µM): 23.4%
- viability, T/C [13]: 48.1%
- viability, T/C [14]: 51.8%
- viability, T/C [15]: 53.5%
- viability, T/C [16]: 51%
- viability, T/C (second compound 3.16 µM, first compound 3.16 µM): 37%
- viability, T/C (second compound 3.16 µM, first compound 10 µM): 22.2%
- viability, T/C [17]: 69.5%
- viability, T/C [18]: 77.1%
- viability, T/C [19]: 73.4%
- viability, T/C [20]: 58.5%
- viability, T/C (second compound 10 µM, first compound 3.16 µM): 46.8%
- viability, T/C (second compound 10 µM, first compound 10 µM): 29.3%

SMILES: O=C(c1ccc(F)c(F)c1Nc1ccc(I)cc1F)N1CC(O)([C@@H]2CCCCN2)C1 + Cc1c(S(C)(=O)=O)c(-c2cc(F)cc(N3CCN(c4ccc(NS(=O)(=O)c5ccc(NC(CCN6CCC(C(=O)OCCCP(=O)(O)O)CC6)CSc6ccccc6)c(S(=O)(=O)C(F)(F)F)c5)cc4)CC3)c2)c(-c2ccc(Cl)cc2)n1C(C)C
- IC50 (second compound 0.1 µM): 543 nM
- IC50 (second compound 0.316 µM): 375 nM
- IC50 (second compound 1 µM): 258 nM
- IC50 (second compound 3.16 µM): 142 nM
- IC50 (second compound 10 µM): 245 nM
- viability, T/C (second compound 0.1 µM, first compound 0.00316 µM): 78.8%
- viability, T/C (second compound 0.1 µM, first compound 0.01 µM): 78.8%
- viability, T/C [1]: 87.4%
- viability, T/C [2]: 85.3%
- viability, T/C [3]: 72.1%
- viability, T/C [4]: 24.9%
- viability, T/C (second compound 0.316 µM, first compound 0.00316 µM): 71.2%
- viability, T/C (second compound 0.316 µM, first compound 0.01 µM): 78.9%
- viability, T/C [5]: 70.6%
- viability, T/C [6]: 72%
- viability, T/C [7]: 55.8%
- viability, T/C [8]: 15.5%
- viability, T/C (second compound 1 µM, first compound 0.00316 µM): 60.4%
- viability, T/C (second compound 1 µM, first compound 0.01 µM): 61.2%
- viability, T/C [9]: 71.6%
- viability, T/C [10]: 72.5%
- viability, T/C [11]: 46.5%
- viability, T/C [12]: 12.2%
- viability, T/C (second compound 3.16 µM, first compound 0.00316 µM): 60.5%
- viability, T/C (second compound 3.16 µM, first compound 0.01 µM): 53.6%
- viability, T/C [13]: 59.5%
- viability, T/C [14]: 53.6%
- viability, T/C [15]: 40.7%
- viability, T/C [16]: 18.3%
- viability, T/C (second compound 10 µM, first compound 0.00316 µM): 68.2%
- viability, T/C (second compound 10 µM, first compound 0.01 µM): 75.2%
- viability, T/C [17]: 76.4%
- viability, T/C [18]: 79.9%
- viability, T/C [19]: 43%
- viability, T/C [20]: 13.7%
